The record followed here is patent publication EP1019392B1, “TRICYCLIC AMIDES USEFUL FOR INHIBITION OF G-PROTEIN FUNCTION AND FOR TREATMENT OF PROLIFERATIVE DISEASES” (SCHERING CORPORATION, priority 1995, dated 1997).

The subject of assay [1] is Normal human HEPM fibroblasts. As to the kind of experiment: Cell Mat Assay, normal cell mat. The format is cell-based. The conditions noted are these: normal monolayer.
For assay [2], the system named is SW620-BAG human colon carcinoma cells expressing an activated K-ras gene. In words: Cell Mat Assay, SW620 tumor cells. The format is cell-based. The note with it: Mat assay.
Assay [3] deals with Ras-CVLS processing in COS monkey kidney cells. In words: COS cell assay: inhibition of Ras-CVLS processing (Western blot). The format is cell-based. The source says: • 1. In vitro enzyme assays: Inhibition of farnesyl protein transferase and geranylgeranyl protein transferase. Both farnesyl protein transferase (FPT) and geranylgeranyl protein transferase (GGPT) I were partially purified from rat brain by ammonium sulfate fractionation followed by Q-Sepharose (Pharmacia, Inc.) anion exchange chromatography essentially as described by Yokoyama et al (Yokoyama, K., et al., (1991), A protein geranylgeranyltransferase from bovine brain: Implications for protein prenylation specificity, Proc. Natl. Acad. Sci USA 88: 5302-5306, the disclosure of which is incorporated herein by reference thereto). Human farnesyl protein transferase was also expressed in E. coli, using cDNA clones encoding both the a and b subunits. The methods used were similar to those published (Omer, C. et al., (1993), Characterization of recombinant human farnesyl protein transferase: Cloning, expression, farnesyl diphosphate binding, and functional homology with yeast prenyl-protein transferases, Biochemistry 32:5167-5176). Human farnesyl protein transferase was partially-purified from the soluble protein fraction of E. coli as described above. […] Two forms of val^12-Ha-Ras protein were prepared as substrates for these enzymes, differing in their carboxy terminal sequence. One form terminated in cysteine-valine-leucine-serine (Ras-CVLS) the other in cystein-valine-leucine-leucine (Ras-CVLL). Ras-CVLS is a substrate for the farnesyl protein transferase while Ras-CVLL is a substrate for geranylgeranyl protein transferase I. The cDNAs encoding these proteins were constructed so that the proteins contain an amino-terminal extension of 6 histidine residues. Both proteins were expressed in Escherichia coli and purified using metal chelate affinity chromatography. The radiolabelled isoprenyl pyrophosphate substrates, [^3H]farnesyl pyrophosphate and [^3H]geranylgeranyl pyrophosphate, were purchased from DuPont/New England Nuclear. Several methods for measuring farnesyl protein transferase activity have been described (Reiss et al 1990, Cell 62: 81; Schaber et al 1990, J. Biol. Chem. 265: 14701; Manne et al 1990, PNAS 87: 7541; and Barbacid & Manne 1993, U.S. Patent No. 5,185,248). […] The reaction was allowed to proceed for 30 minutes at room temperature and then stopped with 0.5 ml of 4% sodium dodecyl sulfate (SDS) followed by 0.5 ml of cold 30% TCA. Samples were allowed to sit on ice for 45 minutes and precipitated Ras protein was then collected on GF/C filter paper mats using a Brandel cell harvester. Filter mats were washed once with 6% TCA, 2% SDS and radioactivity was measured in a Wallac 1204 Betaplate BS liquid scintillation counter. Percent inhibition was calculated relative to the DMSO vehicle control. The geranylgeranyl protein transferase I assay was essentially identical to the farnesyl protein transferase assay described above, with two exceptions: [^3H]geranylgeranylpyrophosphate replaced farnesyl pyrophosphate as the isoprenoid donor and Ras-CVLL was the protein acceptor. […] Cell-Based Assay: Transient expression of val^12-Ha-Ras-CVLS and val^12-Ha-Ras-CVLL in COS monkey kidney cells: Effect of farnesyl protein transferase inhibitors on Ras processing and on disordered cell growth induced by transforming Ras. COS monkey kidney cells were transfected by electroporation with the plasmid pSV-SPORT (Gibco/BRL) containing a cDNA insert encoding either Ras-CVLS or Ras-CVLL, leading to transient overexpression of a Ras substrate for either farnesyl protein transferase or geranylgeranyl protein transferase I, respectively (see above). Following electroporation, cells were plated into 6-well tissue culture dishes containing 1.5 ml of Dulbecco's-modified Eagle's media (GIBCO, Inc.) supplemented with 10% fetal calf serum and the appropriate farnesyl protein transferase inhibitors. After 24 hours, media was removed and fresh media containing the appropriate drugs was re-added.

The subject of assay [4] is DLD-1-BAG human colon carcinoma cells expressing as activated K-ras gene. In words: Cell Mat Assay, DLD-1 tumor cells. The format is cell-based. The conditions noted are these: Mat assay.
Assay [5] deals with T24-BAG4 human bladder carcinoma cells expressing an activated H-ras gene. As to the kind of experiment: Cell Mat Assay, T24 tumor cells. The class given is cell-based. The note with it: read-out: Tumor (T-24) IC50.
Assay [6] has as its system DLD-1 (human colon carcinoma cells, ATCC # CCL 221). As to the kind of experiment: In Vivo Anti-Tumor Studies, subcutaneous DLD-1 tumors. Set-up: species or system athymic nu/nu female mice. The conditions noted are these: Mus musculus, DLD-1, po, QID, 4 weeks, range over the listed compounds; for inhibition in vivo at 10 mg/kg: 10 mg/kg p.o.; for inhibition in vivo at 50 mg/kg: 50 mg/kg p.o. The source says: Tumor cells (5 X 10^5 to 8 X 10^6) of DLD-1 (human colon carcinoma cells, ATCC # CCL 221) are innolculated subcutaneously into the flank of 5-6 week o;d athymic nu/nu female mice.

In assay [7] the target is T1, geranylgeranyl protein transferase (GGPT) I (Rattus norvegicus, UniProt P53610+Q04631).
T1 construct: geranylgeranyl protein transferase (GGPT) I were partially purified from rat brain; from tissue; host or cells: rat brain
As to the kind of experiment: In vitro enzyme assay: inhibition of geranylgeranyl protein transferase I (Ras-CVLL as acceptor). The format is biochemical. The conditions noted are these: Table 2; Ras-CVLL as isoprenoid acceptor. The source says:
• 1. In vitro enzyme assays: Inhibition of farnesyl protein transferase and geranylgeranyl protein transferase. Both farnesyl protein transferase (FPT) and geranylgeranyl protein transferase (GGPT) I were partially purified from rat brain by ammonium sulfate fractionation followed by Q-Sepharose (Pharmacia, Inc.) anion exchange chromatography essentially as described by Yokoyama et al (Yokoyama, K., et al., (1991), A protein geranylgeranyltransferase from bovine brain: Implications for protein prenylation specificity, Proc. Natl. Acad. Sci USA 88: 5302-5306, the disclosure of which is incorporated herein by reference thereto). Human farnesyl protein transferase was also expressed in E. coli, using cDNA clones encoding both the a and b subunits. The methods used were similar to those published (Omer, C. et al., (1993), Characterization of recombinant human farnesyl protein transferase: Cloning, expression, farnesyl diphosphate binding, and functional homology with yeast prenyl-protein transferases, Biochemistry 32:5167-5176). Human farnesyl protein transferase was partially-purified from the soluble protein fraction of E. coli as described above. The tricyclic farnesyl protein transferase inhibitors disclosed herein inhibited both human and rat enzyme with similar potencies. Two forms of val^12-Ha-Ras protein were prepared as substrates for these enzymes, differing in their carboxy terminal sequence. One form terminated in cysteine-valine-leucine-serine (Ras-CVLS) the other in cystein-valine-leucine-leucine (Ras-CVLL). Ras-CVLS is a substrate for the farnesyl protein transferase while Ras-CVLL is a substrate for geranylgeranyl protein transferase I. The cDNAs encoding these proteins were constructed so that the proteins contain an amino-terminal extension of 6 histidine residues. Both proteins were expressed in Escherichia coli and purified using metal chelate affinity chromatography. The radiolabelled isoprenyl pyrophosphate substrates, [^3H]farnesyl pyrophosphate and [^3H]geranylgeranyl pyrophosphate, were purchased from DuPont/New England Nuclear. Several methods for measuring farnesyl protein transferase activity have been described (Reiss et al 1990, Cell 62: 81; Schaber et al 1990, J. Biol. Chem. 265: 14701; Manne et al 1990, PNAS 87: 7541; and Barbacid & Manne 1993, U.S. Patent No. 5,185,248). The activity was assayed by measuring the transfer of [^3H]farnesyl from [^3H]farnesyl pyrophosphate to Ras-CVLS using conditions similar to those described by Reiss et al. 1990 (Cell 62: 81) The reaction mixture contained 40 mM Hepes, pH 7.5; 20 mM magnesium chloride; 5 mM dithiothreitol; 0.25 µM [^3H]farnesyl pyrophosphate; […] Q-Sepharose-purified farnesyl protein transferase; the indicated concentration of tricyclic compound or dimethylsulfoxide (DMSO) vehicle control (5% DMSO final); and […] Ras-CVLS in a total volume of […]. The reaction was allowed to proceed for 30 minutes at room temperature and then stopped with 0.5 ml of 4% sodium dodecyl sulfate (SDS) followed by 0.5 ml of cold 30% TCA. Samples were allowed to sit on ice for 45 minutes and precipitated Ras protein was then collected on GF/C filter paper mats using a Brandel cell harvester. Filter mats were washed once with 6% TCA, 2% SDS and radioactivity was measured in a Wallac 1204 Betaplate BS liquid scintillation counter. Percent inhibition was calculated relative to the DMSO vehicle control. The geranylgeranyl protein transferase I assay was essentially identical to the farnesyl protein transferase assay described above, with two exceptions: [^3H]geranylgeranylpyrophosphate replaced farnesyl pyrophosphate as the isoprenoid donor and Ras-CVLL was the protein acceptor. This is similar to the assay reported by Casey et al (Casey, P.J., et al., (1991), Enzymatic modification of proteins with a geranylgeranyl isoprenoid, Proc. Natl. Acad. Sci, USA 88: 8631-8635, the disclosure of which is incorporated herein by reference thereto). • 2. […]

Assay [8] concerns the target T2, farnesyl protein transferase (FPT) (Rattus norvegicus, UniProt Q02293+Q04631).
T2 construct: were partially purified from rat brain by ammonium sulfate fractionation followed by Q-Sepharose; from tissue; host or cells: rat brain
As to the kind of experiment: In vitro enzyme assay: inhibition of farnesyl protein transferase (transfer of [3H]farnesyl to Ras-CVLS). The class given is biochemical. On the procedure: • 1. In vitro enzyme assays: Inhibition of farnesyl protein transferase and geranylgeranyl protein transferase. […] Human farnesyl protein transferase was also expressed in E. coli, using cDNA clones encoding both the a and b subunits. […] Human farnesyl protein transferase was partially-purified from the soluble protein fraction of E. coli as described above. […] Two forms of val^12-Ha-Ras protein were prepared as substrates for these enzymes, differing in their carboxy terminal sequence. One form terminated in cysteine-valine-leucine-serine (Ras-CVLS) the other in cystein-valine-leucine-leucine (Ras-CVLL). Ras-CVLS is a substrate for the farnesyl protein transferase while Ras-CVLL is a substrate for geranylgeranyl protein transferase I. The cDNAs encoding these proteins were constructed so that the proteins contain an amino-terminal extension of 6 histidine residues. Both proteins were expressed in Escherichia coli and purified using metal chelate affinity chromatography. The radiolabelled isoprenyl pyrophosphate substrates, [^3H]farnesyl pyrophosphate and [^3H]geranylgeranyl pyrophosphate, were purchased from DuPont/New England Nuclear. […] The reaction was allowed to proceed for 30 minutes at room temperature and then stopped with 0.5 ml of 4% sodium dodecyl sulfate (SDS) followed by 0.5 ml of cold 30% TCA. Samples were allowed to sit on ice for 45 minutes and precipitated Ras protein was then collected on GF/C filter paper mats using a Brandel cell harvester. […] Percent inhibition was calculated relative to the DMSO vehicle control. The geranylgeranyl protein transferase I assay was essentially identical to the farnesyl protein transferase assay described above, with two exceptions: [^3H]geranylgeranylpyrophosphate replaced farnesyl pyrophosphate as the isoprenoid donor and Ras-CVLL was the protein acceptor. […] Cell-Based Assay: Transient expression of val^12-Ha-Ras-CVLS and val^12-Ha-Ras-CVLL in COS monkey kidney cells: Effect of farnesyl protein transferase inhibitors on Ras processing and on disordered cell growth induced by transforming Ras. COS monkey kidney cells were transfected by electroporation with the plasmid pSV-SPORT (Gibco/BRL) containing a cDNA insert encoding either Ras-CVLS or Ras-CVLL, leading to transient overexpression of a Ras substrate for either farnesyl protein transferase or geranylgeranyl protein transferase I, respectively (see above). Following electroporation, cells were plated into 6-well tissue culture dishes containing 1.5 ml of Dulbecco's-modified Eagle's media (GIBCO, Inc.) supplemented with 10% fetal calf serum and the appropriate farnesyl protein transferase inhibitors. After 24 hours, media was removed and fresh media containing the appropriate drugs was re-added. 48 hours after electroporation cells were examined under the microscope to monitor disordered cell growth induced by transforming Ras. Cells expressing transforming Ras become more rounded and refractile and overgrow the monolayer, reminiscent of the transformed phenotype. Cells were then photographed, washed twice with 1 ml of cold phosphate-buffered saline (PBS) and removed from the dish by scraping with a rubber policeman into 1 ml of a buffer containing 25 mM Tris, pH 8.0; 1 mM ethylenediamine tetraacetic acid; 1 mM phenylmethylsulfonyl fluoride; […] leupeptin; and 0.1 mM pepstatin. Cells were lysed by homogenization and cell debris was removed by centrifugation at 2000 x g for 10 min. Cellular protein was precipitated by addition of ice-cold trichloroacetic acid and redissolved in […] of SDS-electrophoresis sample buffer. […] Proteins resolved on the gels were electroblotted onto nitrocellulose membranes for immunodetection. […] After washing, membranes were incubated for one hour at room temperature with a 1:5000 dilution of secondary antibody, rabbit anti-rat IgG conjugated to horseradish peroxidase, in PBS containing 1% fetal calf serum.

[9] abbreviates: Table 2, comparison with GGPT, read-out: ENZYME INHIBITION FPT IC50.

Read-outs that look alike come from different tables or passages of the source.

As usually defined, the IC50 is the point on the concentration scale where inhibition reaches its midpoint. As a reminder, the inhibition in vivo is the relative decrease from the control value, in per cent. Take `NC(=O)N1CCC(CC(=O)N2CCC(=C3c4ncc(Br)cc4CCc4cc(Cl)cc(Br)c43)CC2)CC1` (single isomer, unassigned) [Example 8B]: the half-maximal inhibitory concentration (IC50) in assay [1] was over 25 µM; in assay [2], 3.1 µM; in assay [3], 0.28 µM; in assay [4], under 1.6 µM; in assay [5], under 1.6 µM; in assay [7], over 60 µM. Also, the inhibition in vivo at 10 mg/kg in assay [6] was 7 to 50%. The molecule also registered an inhibition in vivo at 50 mg/kg in assay [6] of 35.4 to 83%.
Turning to `NC(=O)N1CCC(CC(=O)N2CCC(C3c4ccc(Cl)cc4CCc4cc(Br)cnc43)CC2)CC1` (stereo not drawn) [Example 4], the 50% inhibitory concentration (IC50) in assay [1] (Homo sapiens, Fibroblast) is over 25 µM; in assay [5] (Homo sapiens), 3.1 µM; in assay [8] (Table 1, partially purified rat brain FPT, Ras-CVLS, read-out: FPT IC50), 0.046 µM; in assay [8] (setting [9]), 0.046 µM; in assay [7], over 35.7 µM. The molecule also registered an inhibition in vivo at 10 mg/kg in assay [6] of 7 to 50%. The molecule further had an inhibition in vivo at 50 mg/kg in assay [6] of 35.4 to 83%.
Consider `O=C(Cc1cc[n+]([O-])cc1)N1CCC(=C2c3ncc(Br)cc3CCc3cc(Cl)cc(Br)c32)CC1` (single isomer, unassigned) [Example 7B], for which the IC50 is under 0.003 µM in assay [8] (FPT IC50, Table 1, partially purified rat brain FPT, Ras-CVLS); under 0.003 µM in assay [8] (setting [9]); over 66 µM in assay [7].
